Numbers after ± are expanded uncertainties. Each block holds one compound with its values, some of them ahead of it.
Legend:
[1] = refractive index (Na D-line) (dimensionless); conditions: 303.15 K; 101.33 kPa; Liquid
[2] = 303.15 K; 101 kPa; Liquid
[3] = xn = mol fraction of the nth substance listed; conditions: 303.15 K, 101 kPa, Liquid
[4] = refractive index (Na D-line) (dimensionless); xn = mol fraction of the nth substance listed; conditions: 303.15 K, 101 kPa, Liquid

Compound: C[S+](C)[O-] [dimethyl sulfoxide]
refractive index [1]: 1.4751 ± 0.0007 | mass density [2]: 1094.9 ± 1.3 kg/m3 | speed of sound [2]: 1490.9 ± 5 m/s

Compound: CCCCO [butan-1-ol]
refractive index [1]: 1.3946 ± 0.0007 | mass density [2]: 802 ± 0.8 kg/m3 | speed of sound [2]: 1231 ± 4.7 m/s

Compound: C[S+](C)[O-] [dimethyl sulfoxide] + CCCCO
mass density ([3]; x1 = 0.1034): 825.7 ± 0.8 kg/m3 | speed of sound ([3]; x1 = 0.1034): 1247.5 ± 4.7 m/s | mass density ([3]; x1 = 0.2122): 851.8 ± 0.9 kg/m3 | speed of sound ([3]; x1 = 0.2122): 1267.5 ± 4.8 m/s | mass density ([3]; x1 = 0.3156): 877.9 ± 0.9 kg/m3 | speed of sound ([3]; x1 = 0.3156): 1288 ± 4.8 m/s | mass density ([3]; x1 = 0.4009): 900.5 ± 1 kg/m3 | speed of sound ([3]; x1 = 0.4009): 1305.5 ± 4.8 m/s | mass density ([3]; x1 = 0.5073): 930.1 ± 1 kg/m3 | speed of sound ([3]; x1 = 0.5073): 1327.3 ± 4.8 m/s | mass density ([3]; x1 = 0.6002): 957.2 ± 1 kg/m3 | speed of sound ([3]; x1 = 0.6002): 1347.5 ± 4.8 m/s | mass density ([3]; x1 = 0.6957): 986.6 ± 1.1 kg/m3 | speed of sound ([3]; x1 = 0.6957): 1371 ± 4.9 m/s | mass density ([3]; x1 = 0.8112): 1024.6 ± 1.2 kg/m3 | speed of sound ([3]; x1 = 0.8112): 1406.6 ± 4.9 m/s | mass density ([3]; x1 = 0.9051): 1058.4 ± 1.2 kg/m3 | speed of sound ([3]; x1 = 0.9051): 1443 ± 5 m/s | mass density ([3]; x1 = 1): 1094.9 ± 1.3 kg/m3 | speed of sound ([3]; x1 = 1): 1490.9 ± 5 m/s | refractive index ([4]; x1 = 0.1034): 1.4001 ± 0.0007 | refractive index ([4]; x1 = 0.2122): 1.4064 ± 0.0007 | refractive index ([4]; x1 = 0.3156): 1.4127 ± 0.0007 | refractive index ([4]; x1 = 0.4009): 1.4185 ± 0.0007 | refractive index ([4]; x1 = 0.5073): 1.4263 ± 0.0007 | refractive index ([4]; x1 = 0.6002): 1.4335 ± 0.0007 | refractive index ([4]; x1 = 0.6957): 1.4417 ± 0.0007 | refractive index ([4]; x1 = 0.8112): 1.4527 ± 0.0007 | refractive index ([4]; x1 = 0.9051): 1.4633 ± 0.0007 | refractive index ([4]; x1 = 1): 1.4751 ± 0.0007

Compound: CCCCO [butan-1-ol] + C[S+](C)[O-]
mass density ([3]; x2 = 0): 802 ± 0.8 kg/m3 | speed of sound ([3]; x2 = 0): 1231 ± 4.7 m/s | refractive index ([4]; x2 = 0): 1.3946 ± 0.0007

Compound: C[S+](C)[O-] [dimethyl sulfoxide] + CCCCCCO
mass density ([3]; x1 = 1): 1094.9 ± 2.4 kg/m3 | speed of sound ([3]; x1 = 1): 1490.9 ± 7 m/s | refractive index ([4]; x1 = 1): 1.4751 ± 0.0007

Compound: C[S+](C)[O-] [dimethyl sulfoxide] + CCCCCCCO
mass density ([3]; x1 = 1): 1094.9 ± 1.3 kg/m3 | speed of sound ([3]; x1 = 1): 1490.9 ± 7 m/s | refractive index ([4]; x1 = 1): 1.4751 ± 0.0007

Second part, the compound after the results:

refractive index [1]: 1.4201 ± 0.0007 | mass density [2]: 815.7 ± 0.9 kg/m3 | speed of sound [2]: 1306 ± 6.6 m/s
Compound: CCCCCCCO [heptan-1-ol]

mass density ([3]; x2 = 0): 811.8 ± 1.8 kg/m3 | speed of sound ([3]; x2 = 0): 1282 ± 6.7 m/s | mass density ([3]; x2 = 0.1336): 832.6 ± 1.8 kg/m3 | speed of sound ([3]; x2 = 0.1336): 1300.8 ± 6.7 m/s | mass density ([3]; x2 = 0.2712): 857.6 ± 1.9 kg/m3 | speed of sound ([3]; x2 = 0.2712): 1311.6 ± 6.7 m/s | mass density ([3]; x2 = 0.3808): 880.7 ± 1.9 kg/m3 | speed of sound ([3]; x2 = 0.3808): 1325.3 ± 6.7 m/s | mass density ([3]; x2 = 0.4814): 904.6 ± 1.9 kg/m3 | speed of sound ([3]; x2 = 0.4814): 1336.5 ± 6.7 m/s | mass density ([3]; x2 = 0.5762): 929.7 ± 2 kg/m3 | speed of sound ([3]; x2 = 0.5762): 1349.5 ± 6.7 m/s | mass density ([3]; x2 = 0.666): 956.3 ± 2 kg/m3 | speed of sound ([3]; x2 = 0.666): 1368 ± 6.8 m/s | mass density ([3]; x2 = 0.765): 989.2 ± 2.1 kg/m3 | speed of sound ([3]; x2 = 0.765): 1395 ± 6.8 m/s | mass density ([3]; x2 = 0.848): 1021.1 ± 2.2 kg/m3 | speed of sound ([3]; x2 = 0.848): 1420.5 ± 6.8 m/s | mass density ([3]; x2 = 0.9246): 1054.7 ± 2.3 kg/m3 | speed of sound ([3]; x2 = 0.9246): 1448.5 ± 6.9 m/s | refractive index ([4]; x2 = 0): 1.4134 ± 0.0008 | refractive index ([4]; x2 = 0.1336): 1.4149 ± 0.0008 | refractive index ([4]; x2 = 0.2712): 1.4185 ± 0.0008 | refractive index ([4]; x2 = 0.3808): 1.4216 ± 0.0008 | refractive index ([4]; x2 = 0.4814): 1.4259 ± 0.0008 | refractive index ([4]; x2 = 0.5762): 1.4311 ± 0.0008 | refractive index ([4]; x2 = 0.666): 1.4372 ± 0.0007 | refractive index ([4]; x2 = 0.765): 1.4448 ± 0.0007 | refractive index ([4]; x2 = 0.848): 1.4535 ± 0.0007 | refractive index ([4]; x2 = 0.9246): 1.4629 ± 0.0007
Compound: CCCCCCO [hexan-1-ol] + C[S+](C)[O-]

mass density ([3]; x2 = 0): 815.7 ± 0.9 kg/m3 | speed of sound ([3]; x2 = 0): 1306 ± 6.6 m/s | mass density ([3]; x2 = 0.1096): 825.7 ± 0.9 kg/m3 | speed of sound ([3]; x2 = 0.1096): 1312.3 ± 6.6 m/s | mass density ([3]; x2 = 0.2535): 846 ± 0.9 kg/m3 | speed of sound ([3]; x2 = 0.2535): 1319.5 ± 6.6 m/s | mass density ([3]; x2 = 0.3668): 866.8 ± 1 kg/m3 | speed of sound ([3]; x2 = 0.3668): 1329.9 ± 6.6 m/s | mass density ([3]; x2 = 0.474): 889.4 ± 1 kg/m3 | speed of sound ([3]; x2 = 0.474): 1338 ± 6.6 m/s | mass density ([3]; x2 = 0.5788): 915.8 ± 1 kg/m3 | speed of sound ([3]; x2 = 0.5788): 1351.5 ± 6.7 m/s | mass density ([3]; x2 = 0.6708): 943.2 ± 1.1 kg/m3 | speed of sound ([3]; x2 = 0.6708): 1369 ± 6.7 m/s | mass density ([3]; x2 = 0.7598): 973.2 ± 1.1 kg/m3 | speed of sound ([3]; x2 = 0.7598): 1384.6 ± 6.7 m/s | mass density ([3]; x2 = 0.8376): 1003.5 ± 1.2 kg/m3 | speed of sound ([3]; x2 = 0.8376): 1409.3 ± 6.8 m/s | mass density ([3]; x2 = 0.9031): 1034.5 ± 1.2 kg/m3 | speed of sound ([3]; x2 = 0.9031): 1428.6 ± 6.8 m/s | refractive index ([4]; x2 = 0): 1.4201 ± 0.0007 | refractive index ([4]; x2 = 0.1096): 1.4209 ± 0.0007 | refractive index ([4]; x2 = 0.2535): 1.4242 ± 0.0007 | refractive index ([4]; x2 = 0.3668): 1.4277 ± 0.0007 | refractive index ([4]; x2 = 0.474): 1.4312 ± 0.0007 | refractive index ([4]; x2 = 0.5788): 1.4355 ± 0.0007 | refractive index ([4]; x2 = 0.6708): 1.4402 ± 0.0007 | refractive index ([4]; x2 = 0.7598): 1.4458 ± 0.0007 | refractive index ([4]; x2 = 0.8376): 1.4528 ± 0.0007 | refractive index ([4]; x2 = 0.9031): 1.4615 ± 0.0007
Compound: CCCCCCCO [heptan-1-ol] + C[S+](C)[O-]

refractive index [1]: 1.4134 ± 0.0008 | mass density [2]: 811.8 ± 1.8 kg/m3 | speed of sound [2]: 1282 ± 6.7 m/s
Compound: CCCCCCO [hexan-1-ol]
